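96-well plates; 48 h exposure; 5 concentrations. Endpoints by linear interpolation between flanking doses. Not reached: highest tested concentration assigned. GI50 is the concentration that inhibits growth by half. At the TGI there is no net growth.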
Experiments:
Assay in all cases: NCI-60 cell line screen, 48 h
PC-3 prostate = test system: PC-3 prostate
MOLT-4 leukemia = test system: MOLT-4 leukemia
HL-60(TB) leukemia = test system: HL-60(TB) leukemia
NCI/ADR-RES ovarian = test system: NCI/ADR-RES ovarian
SK-OV-3 ovarian = test system: SK-OV-3 ovarian
MALME-3M melanoma = test system: MALME-3M melanoma
SNB-19 CNS = test system: SNB-19 CNS
NCI-H522 lung = test system: NCI-H522 lung
SF-539 CNS = test system: SF-539 CNS
COLO 205 colon = test system: COLO 205 colon
HCC-2998 colon = test system: HCC-2998 colon
HOP-62 NSCLC = test system: HOP-62 NSCLC
A498 renal = test system: A498 renal
HCT-15 colon = test system: HCT-15 colon
DU-145 prostate = test system: DU-145 prostate
UACC-257 melanoma = test system: UACC-257 melanoma
M14 melanoma = test system: M14 melanoma
SF-268 CNS = test system: SF-268 CNS
A549 NSCLC = test system: A549 NSCLC
LOX IMVI melanoma = test system: LOX IMVI melanoma
SK-MEL-5 melanoma = test system: SK-MEL-5 melanoma
HCT-116 colon = test system: HCT-116 colon
RXF 393 renal = test system: RXF 393 renal
RPMI-8226 leukemia = test system: RPMI-8226 leukemia
SK-MEL-28 melanoma = test system: SK-MEL-28 melanoma
CCRF-CEM leukemia = test system: CCRF-CEM leukemia
T-47D breast = test system: T-47D breast
MDA-MB-231 breast = test system: MDA-MB-231 breast
KM12 colon = test system: KM12 colon
IGROV1 ovarian = test system: IGROV1 ovarian
OVCAR-3 ovarian = test system: OVCAR-3 ovarian
OVCAR-4 ovarian = test system: OVCAR-4 ovarian
UO-31 renal = test system: UO-31 renal
HT29 colon = test system: HT29 colon
SNB-75 CNS = test system: SNB-75 CNS
SW-620 colon = test system: SW-620 colon
U251 CNS = test system: U251 CNS
NCI-H460 lung = test system: NCI-H460 lung
ACHN renal = test system: ACHN renal
UACC-62 melanoma = test system: UACC-62 melanoma
SN12C renal = test system: SN12C renal
EKVX NSCLC = test system: EKVX NSCLC
OVCAR-5 ovarian = test system: OVCAR-5 ovarian
K-562 leukemia = test system: K-562 leukemia
HOP-92 NSCLC = test system: HOP-92 NSCLC
TK-10 renal = test system: TK-10 renal
786-0 renal = test system: 786-0 renal
CAKI-1 renal = test system: CAKI-1 renal
SK-MEL-2 melanoma = test system: SK-MEL-2 melanoma
HS 578T breast = test system: HS 578T breast
MDA-MB-435 = test system: MDA-MB-435
OVCAR-8 ovarian = test system: OVCAR-8 ovarian
BT-549 breast = test system: BT-549 breast
SF-295 CNS = test system: SF-295 CNS

Cc1cc2ncc(-c3cc4ccccc4c(N4CCN(C)CC4)n3)nc2cc1C
GI50 (PC-3 prostate): 5.37 µM
TGI (PC-3 prostate): > 100 µM
GI50 (MOLT-4 leukemia): 2.32 µM
TGI (MOLT-4 leukemia): 5.27 µM
GI50 (HL-60(TB) leukemia): 1.55 µM
TGI (HL-60(TB) leukemia): 3.56 µM
GI50 (NCI/ADR-RES ovarian): 5.76 µM
TGI (NCI/ADR-RES ovarian): > 100 µM
GI50 (SK-OV-3 ovarian): 36.6 µM
TGI (SK-OV-3 ovarian): > 100 µM
GI50 (MALME-3M melanoma): 1.75 µM
TGI (MALME-3M melanoma): 3.42 µM
GI50 (SNB-19 CNS): 20.2 µM
TGI (SNB-19 CNS): 89.8 µM
GI50 (NCI-H522 lung): 11.6 µM
TGI (NCI-H522 lung): 28.9 µM
GI50 (SF-539 CNS): 1.87 µM
TGI (SF-539 CNS): 3.98 µM
GI50 (COLO 205 colon): 1.87 µM
TGI (COLO 205 colon): 3.52 µM
GI50 (HCC-2998 colon): 1.69 µM
TGI (HCC-2998 colon): 3.2 µM
GI50 (HOP-62 NSCLC): 21.2 µM
TGI (HOP-62 NSCLC): 79.5 µM
GI50 (A498 renal): 16.1 µM
TGI (A498 renal): 31.6 µM
GI50 (HCT-15 colon): 1.82 µM
TGI (HCT-15 colon): 3.6 µM
GI50 (DU-145 prostate): 6.53 µM
TGI (DU-145 prostate): > 100 µM
GI50 (UACC-257 melanoma): 12.8 µM
TGI (UACC-257 melanoma): 26.4 µM
GI50 (M14 melanoma): 1.75 µM
TGI (M14 melanoma): 3.21 µM
GI50 (SF-268 CNS): 13.2 µM
TGI (SF-268 CNS): 55 µM
GI50 (A549 NSCLC): 81.6 µM
TGI (A549 NSCLC): > 100 µM
GI50 (LOX IMVI melanoma): 1.81 µM
TGI (LOX IMVI melanoma): 3.34 µM
GI50 (SK-MEL-5 melanoma): 12.8 µM
TGI (SK-MEL-5 melanoma): 29.4 µM
GI50 (HCT-116 colon): 1.67 µM
TGI (HCT-116 colon): 3.09 µM
GI50 (RXF 393 renal): 2.01 µM
TGI (RXF 393 renal): 4.8 µM
GI50 (RPMI-8226 leukemia): 2.19 µM
TGI (RPMI-8226 leukemia): 5.33 µM
GI50 (SK-MEL-28 melanoma): 1.74 µM
TGI (SK-MEL-28 melanoma): 3.19 µM
GI50 (CCRF-CEM leukemia): 2.22 µM
TGI (CCRF-CEM leukemia): 5.93 µM
GI50 (T-47D breast): 3.59 µM
TGI (T-47D breast): 15.4 µM
GI50 (MDA-MB-231 breast): 2.98 µM
TGI (MDA-MB-231 breast): 10.3 µM
GI50 (KM12 colon): 2.34 µM
TGI (KM12 colon): 5.47 µM
GI50 (IGROV1 ovarian): 4.81 µM
TGI (IGROV1 ovarian): 61.2 µM
GI50 (OVCAR-3 ovarian): 10.3 µM
TGI (OVCAR-3 ovarian): > 100 µM
GI50 (OVCAR-4 ovarian): 5.62 µM
TGI (OVCAR-4 ovarian): > 100 µM
GI50 (UO-31 renal): 4.35 µM
TGI (UO-31 renal): 17.2 µM
GI50 (HT29 colon): 1.63 µM
TGI (HT29 colon): 3.29 µM
GI50 (SNB-75 CNS): 11 µM
TGI (SNB-75 CNS): 24 µM
GI50 (SW-620 colon): 1.85 µM
TGI (SW-620 colon): 3.41 µM
GI50 (U251 CNS): 2.11 µM
TGI (U251 CNS): 4.91 µM
GI50 (NCI-H460 lung): 1.87 µM
TGI (NCI-H460 lung): 3.45 µM
GI50 (ACHN renal): 2.14 µM
TGI (ACHN renal): 4.45 µM
GI50 (UACC-62 melanoma): 1.89 µM
TGI (UACC-62 melanoma): 3.89 µM
GI50 (SN12C renal): 6.07 µM
TGI (SN12C renal): 65.8 µM
GI50 (EKVX NSCLC): 33.7 µM
TGI (EKVX NSCLC): > 100 µM
GI50 (OVCAR-5 ovarian): 8.87 µM
TGI (OVCAR-5 ovarian): 49.2 µM
GI50 (K-562 leukemia): 1.82 µM
TGI (K-562 leukemia): 3.57 µM
GI50 (HOP-92 NSCLC): 2.42 µM
TGI (HOP-92 NSCLC): 15.9 µM
GI50 (TK-10 renal): 20 µM
TGI (TK-10 renal): 44.1 µM
GI50 (786-0 renal): 1.68 µM
TGI (786-0 renal): 3.57 µM
GI50 (CAKI-1 renal): 1.62 µM
TGI (CAKI-1 renal): 3.12 µM
GI50 (SK-MEL-2 melanoma): 16 µM
TGI (SK-MEL-2 melanoma): 31.2 µM
GI50 (HS 578T breast): 12.7 µM
TGI (HS 578T breast): 39.2 µM
GI50 (MDA-MB-435): 1.79 µM
TGI (MDA-MB-435): 3.36 µM
GI50 (OVCAR-8 ovarian): 2.83 µM
TGI (OVCAR-8 ovarian): 8.57 µM
GI50 (BT-549 breast): 14 µM
TGI (BT-549 breast): 29.2 µM
GI50 (SF-295 CNS): 14.2 µM
TGI (SF-295 CNS): 31.6 µM

Reference: PubChem BioAssay (NCI)
